IC50 data for one compound are collected here from US8765762B2, “Pyrazolopyridazines and methods for treating retinal-degerative diseases and hearing loss associated with usher syndrome” (Usher III Initiative, priority 2012, dated 2014).

A value given as a limit tells only on which side of the number the result lay.

This assay relates to N48K Clarin-1. The assay is described as follows: Restoration of expression of N48K Clarin-1 (24 hour incubation), Example 20. The format is cell-based. Conditions: HEK293-Clarin-1 N48K-HA D9 cell line; 24 hr incubation with compound; HA-Clarin-1 staining per cell. The protocol:
Assay Method Showing Activity of Compounds of the Invention that Restore Expression of N48K Clarin-1 (24 Hour Incubation)
Clarin-1 is the protein encoded by the gene mutated in Usher III Syndrome (Adato et al., 2002). The most prevalent mutation in Clarin-1 in North America is N48K, which is reported to cause loss of glycosylation and a trafficking defect (Tian et al., 2009). […] Thus it is believed that restoring the trafficking of N48K Clarin-1 to the cell surface provides an avenue of intervention for Usher III Syndrome. […]
The HA-tagged N48K Clarin-1 was detected with an antibody against the HA tag (HA.11 Clone 16B12 Monoclonal antibody, Covance #MMS-101P) at a dilution of 1:1000 in PBS containing Triton X-100. […] The imaging of the stained cells was performed on an InCell 1000 High Content Imager (GE Healthcare), reading out the Cy3 channel for N48K Clarin-1 and the DAPI channel for nuclei. The images were analyzed and quantitated using a specific algorithm. This algorithm measured the HA-Clarin-1 staining for each cell based on the additional nuclear segmentation of the DAPI signal (FIG. 1). This algorithm measured the intensity per cell, and thus it is less sensitive for variation in cell number. Per well, approximately 2,000 cells were measured to achieve an average density per cell measurement.

The term IC50 denotes the concentration that gives 50% inhibition. `O=C(Cn1nc(-c2ccccc2)c2c(Cl)c(-c3cccc(F)c3)nnc21)N1CCCC1` [Compound 11, 2-[4-chloro-5-(3-fluorophenyl)-3-phenyl-pyrazolo[3,4-c]pyridazin-1-yl]-1-pyrrolidin-1-yl-ethanone]: the half-maximal inhibitory concentration (IC50) was under 2 µM.
